Converted amounts (≈) assume the structure as drawn.
test system: Entamoeba histolytica; experiment: Antiamoebic activity against Entamoeba histolytica; type: functional, organism-based; conditions: not given

Point of comparison: `COc1cc2c3cc1Oc1c(OC)c(OC)cc4c1[C@H](Cc1ccc(cc1)Oc1cc(ccc1O)C[C@H]3N(C)CC2)N(C)CC4` (stereo in doubt; 117) [AROMOLINE], IC50 19.64 mg/L (≈ 32.3 µM). Against it:
- COc1cc2c3cc1Oc1c(OC)c(OC)cc4c1[C@H](Cc1ccc(cc1)Oc1cc(ccc1O)C[C@H]3N(C)CC2)N(C)CC4 (stereo in doubt; 13) [AROMOLINE] — 6.6-fold lower, 2.99 mg/L (≈ 4.91 µM)
- COc1ccc2cc1Oc1ccc(cc1)C[C@H]1c3cc(c(OC)cc3CCN1C)Oc1c(OC)c(OC)cc3c1[C@H](C2)N(C)CC3 (stereo in doubt; 145) [FANCHININ] — within 1.5-fold, 25.16 mg/L (≈ 40.4 µM)
- COc1ccc2cc1Oc1ccc(cc1)C[C@H]1c3cc(c(OC)cc3CCN1C)Oc1c(OC)c(OC)cc3c1[C@H](C2)N(C)CC3 (stereo in doubt; 146) [FANCHININ] — 1.9-fold lower, 10.51 mg/L (≈ 16.9 µM)

same assay, conditions: Entamoeba histolytica; read-out: IC50

Point of comparison: `O=c1c(O)c(-c2ccc(O)c(O)c2)oc2cc(O)ccc12` [FISETIN], IC50 189 mg/L (≈ 660 µM). Against it:
- CC[C@H]1CN2CCc3c([nH]c4ccccc34)[C@@H]2C[C@H]1C[C@H]1c2[nH]c3ccccc3c2CCN1C.O=C(O)C(=O)O — 290-fold lower, 0.65 mg/L
- CC(C)=CCC/C(C)=C/CC/C(C)=C/CC/C=C(\C)CC/C=C(\C)CCC=C(C)C — within 1.5-fold, 270 mg/L (≈ 658 µM)
- COC1=C[C@]23CCN(C)[C@H](Cc4cc(OC)c(OC)cc42)C3=CC1=O — 3.8-fold lower, 50.1 mg/L (≈ 147 µM)
- CC[C@](C)(OC(C)=O)C(=O)O[C@H]1C(=O)O[C@@H]2C[C@H]3C(C)=CC(=O)[C@@H](O)[C@]3(C)[C@H]3[C@@]4(O)OC[C@]32[C@@H]1[C@@H](C)[C@H]4O [2'-ACETOXY-GLAUCARUBINONE] — 1200-fold lower, 0.155 mg/L (≈ 0.289 µM)
- COc1c(O)cc2oc(-c3ccc(O)cc3)c(OC)c(=O)c2c1O [3,6-DIMETHOXY KAEMPFEROL] — 1.8-fold lower, 105 mg/L (≈ 319 µM)
- C=C[C@H]1CN2CC[C@H]1C[C@@H]2[C@@]12Nc3ccccc3[C@]1(O)CCO2 [3-EPIQUINAMINE] — 15-fold lower, 12.9 mg/L (≈ 41.3 µM)
- CC[C@@H]1CN2CCc3c([nH]c4ccccc34)[C@H]2C[C@@H]1CCO [3-ISOCORYNANTHEOL] — 46-fold lower, 4.1 mg/L (≈ 13.7 µM)
- C=C[C@H]1CN2CCc3c([nH]c4ccccc34)[C@@H]2C[C@@H]1C[C@H]1NCCc2c1[nH]c1cccc(OC)c21 [3ALPHA-17ALPHA-CINCHOPHYLLINE] — 86-fold lower, 2.2 mg/L (≈ 4.71 µM)
- C=C[C@H]1CN2CCc3c([nH]c4ccccc34)[C@@H]2C[C@@H]1C[C@@H]1NCCc2c1[nH]c1cccc(OC)c21 [3ALPHA-17BETA-CINCHOPHYLLINE] — 200-fold lower, 0.96 mg/L (≈ 2.06 µM)
- CCc1ccc2[n+](c1)CCc1c-2[nH]c2ccccc12 [5,6-DIHYDROFLAVOPEREIRINE] — 31-fold lower, 6.02 mg/L
- C=C[C@H]1CN2CC[C@H]1C[C@H]2c1[nH]c2ccccc2c1CCOC [10-METHOXY CINCHONAMINE] — 42-fold lower, 4.5 mg/L (≈ 14.5 µM)
- CC[C@@H]1CN2CC[C@@]34c5ccccc5N5[C@@H]([C@@H]6[C@H]7C[C@@H]8N(CC[C@@]89c8cccc(O)c8N(C(C)=O)[C@@H]69)C[C@H]7CC)OC[C@H]([C@H]1C[C@H]23)[C@H]54 [12'-HYDROXYISOSTRYCHNOBILINE] — 8.8-fold lower, 21.4 mg/L (≈ 33.7 µM)
- Oc1cc(O)c2c(c1)O[C@H](c1ccc(O)c(O)c1)[C@H](O)C2 [(-)-EPICATECHIN] — 98-fold lower, 1.92 mg/L (≈ 6.61 µM)
- COC(=O)C1=CO[C@H](O[C@@H]2O[C@H](COC(C)=O)[C@@H](O)[C@H](O)[C@H]2O)[C@H]2[C@@H]1C=C[C@@]21C=C(C(O)c2ccc(O)cc2)C(=O)O1 (stereo not given in full) [ACETYLGAERTNEROSIDE] — 35-fold lower, 5.4 mg/L (≈ 9.14 µM)
- CCC(C)C(=O)O[C@H]1C(=O)O[C@@H]2C[C@H]3C(C)=CC(=O)[C@@H](O)[C@]3(C)[C@H]3[C@]4(O)OC[C@]32[C@@H]1[C@@H](C)[C@H]4O (stereo not given in full) [AILANTHINONE] — 3000-fold lower, 0.063 mg/L (≈ 0.132 µM)
- CC[C@H]1[C@@H]2C[C@H]3[C@@H]4N(C)c5ccccc5[C@]45C[C@@H]([C@@H]2[C@H]5O)N3[C@@H]1O [AJMALINE] — not separable, > 100 mg/L
- C/C=C(/C=O)[C@@H]1C[C@H]2c3c(c4ccccc4n3[C@@H](O)C1)CCN2C [AKAGERINE] — 11-fold lower, 17.1 mg/L (≈ 52.7 µM)
- O=c1cc(-c2ccc(O)cc2)oc2cc(OC3O[C@H](CO)[C@@H](O)[C@H](O)[C@H]3O)cc(O)c12 (stereo not given in full) [APIGENIN-7-O-GLUCOSIDE] — 3.2-fold lower, 59.8 mg/L (≈ 138 µM)
- O=c1cc(-c2ccc(O)cc2)oc2cc(O)cc(O)c12 [APIGENIN] — 15-fold lower, 12.7 mg/L (≈ 47 µM)
- COC(=O)C1=CO[C@@H](C)[C@@H]2CN3CCc4c([nH]c5ccc(OC)cc45)[C@@H]3C[C@H]12 [ARICINE] — 52-fold lower, 3.6 mg/L (≈ 9.41 µM)
- CN1[C@@H]2CC[C@H]1C[C@@H](OC(=O)C(CO)c1ccccc1)C2 (stereo not given in full) [ATROPINE] — not separable, > 100 mg/L
- COc1cc2c3cc1Oc1c(OC)c(OC)cc4c1[C@@H](Cc1ccc(O)c(c1)Oc1ccc(cc1)C[C@@H]3N(C)CC2)N(C)CC4 [BERBAMINE] — 8.4-fold lower, 22.4 mg/L (≈ 36.7 µM)
- COc1ccc2cc3[n+](cc2c1OC)CCc1cc2c(cc1-3)OCO2 [BERBERINE] — 190-fold lower, 1 mg/L
- CC[C@H](CC[C@@H](C)[C@H]1CC[C@H]2[C@@H]3CC=C4C[C@@H](O)CC[C@]4(C)[C@H]3CC[C@]12C)C(C)C [BETA-SITOSTEROL] — 3.6-fold lower, 52.3 mg/L (≈ 126 µM)
- C/C=C(/C)C(=O)O[C@H]1[C@@H]2[C@H](C)C(=O)O[C@@H]2C[C@@H](C)[C@@H]2C=CC(=O)[C@]21C [BREVILIN A] — 61-fold lower, 3.11 mg/L (≈ 8.98 µM)
- COC(=O)[C@@]12OC[C@]34[C@H]([C@@H](O)[C@@H]1O)[C@@]1(C)CC(=O)C(O)=C(C)[C@@H]1C[C@H]3OC(=O)[C@H](OC(=O)/C=C(\C)C(C)C)[C@@H]24 [BRUCEANTIN] — 9900-fold lower, 0.019 mg/L (≈ 0.0346 µM)
- COC(=O)[C@@]12OC[C@]34[C@H]([C@@H](O)[C@@H]1O)[C@@]1(C)CC(=O)C(O)=C(C)[C@@H]1C[C@H]3OC(=O)[C@H](OC(=O)CC(C)C)[C@@H]24 [BRUCEINE A] — 1900-fold lower, 0.097 mg/L (≈ 0.186 µM)
- COC(=O)[C@@]12OC[C@]34[C@H]([C@@H](O)[C@@H]1O)[C@@]1(C)CC(=O)C(O)=C(C)[C@@H]1C[C@H]3OC(=O)[C@H](OC(C)=O)[C@@H]24 [BRUCEINE B] — 620-fold lower, 0.306 mg/L (≈ 0.637 µM)
- COC(=O)[C@]12OC[C@]34[C@H]([C@@H](O)[C@@H]1O)[C@@]1(C)CC(=O)C(O)=C(C)[C@@H]1C[C@H]3OC(=O)[C@H](OC(=O)/C=C(\C)C(C)(C)O)[C@@H]24 [BRUCEINE C] — 680-fold lower, 0.279 mg/L (≈ 0.494 µM)
- CC1=CC(=O)[C@@H](O)[C@]2(C)[C@H]3[C@@H](O)[C@H](O)[C@]4(C)OC[C@@]35[C@@H](C[C@@H]12)OC(=O)[C@H](O)[C@]54O [BRUCEINE D] — 490-fold lower, 0.386 mg/L (≈ 0.941 µM)
- COC(=O)[C@]12OC[C@]34[C@H]([C@@H](O)[C@@H]1O)[C@@]1(C)CC(=O)C(O)=C(C)[C@@H]1C[C@H]3OC(=O)[C@H](OC(=O)C=C(C)C)[C@@H]24 [BRUSATOL] — 3000-fold lower, 0.062 mg/L (≈ 0.119 µM)
- O=c1ccc2nccc3c4ccccc4n1c23 [CANTHIN-6-ONE] — 8.2-fold lower, 23 mg/L (≈ 104 µM)
- CC(=O)CCCCCCCCCC[C@H]1CC[C@@H](O)[C@@H](C)N1 [CASSINE] — 16-fold lower, 12 mg/L (≈ 40.2 µM)
- CC[C@H]1CN2CCc3cc(OC)c(OC)cc3[C@@H]2C[C@@H]1C[C@H]1NCCc2cc(O)c(OC)cc21 [CEPHAELINE] — 58-fold lower, 3.26 mg/L (≈ 6.99 µM)
- O=c1cc(-c2ccccc2)oc2cc(O)cc(O)c12 [CHRYSIN] — 2.3-fold lower, 81 mg/L (≈ 319 µM)
- COc1cc(-c2cc(=O)c3c(O)cc(O[C@@H]4O[C@H](CO)[C@@H](O)[C@H](O)[C@H]4O[C@@H]4O[C@@H](C)[C@H](O)[C@@H](O)[C@H]4O)cc3o2)ccc1O [CHRYSOERIOL-7-O-NEOHESPERIDOSIDE] — not separable, > 125 mg/L
- Cc1cc(O)c2c(c1)C(=O)c1cccc(O)c1C2=O [CHRYSOPHANOL] — 30-fold lower, 6.21 mg/L (≈ 24.4 µM)
- Oc1cc(O)c2c(c1)O[C@H](c1ccc(O)c(O)c1)[C@@H](O)C2 [CIANIDANOL] — 2.9-fold lower, 65.5 mg/L (≈ 226 µM)
- C=C[C@H]1CN2CC[C@H]1C[C@H]2c1[nH]c2ccccc2c1CCO [CINCHONAMINE] — 13-fold lower, 14.8 mg/L (≈ 49.9 µM)
- COc1cc2c3c4c1Oc1cc5c(cc1O4)[C@H](Cc1ccc(O)c(c1)Oc1ccc(cc1)C[C@@H]3N(C)CC2)NCC5 [COCSOLINE] — 19-fold lower, 9.86 mg/L (≈ 18 µM)
- CI.COc1cc2c3c4c1Oc1cc5c(cc1O4)[C@H](Cc1ccc(O)c(c1)Oc1ccc(cc1)C[C@@H]3N(C)CC2)N(C)CC5 [COCSULINE METHIODIDE] — 6.5-fold lower, 28.9 mg/L
- COc1cc2c3c4c1Oc1cc5c(cc1O4)[C@H](Cc1ccc(O)c(c1)Oc1ccc(cc1)C[C@@H]3N(C)CC2)N(C)CC5 [COCSULINE] — 14-fold lower, 13.2 mg/L (≈ 23.5 µM)
- C[C@@H]1N=C[C@]23CC[C@H]4[C@@H](CC=C5C[C@@H](N)CC[C@@]54C)[C@@H]2CC[C@H]13 [CONCKURCHINE] — 16-fold lower, 12 mg/L (≈ 38.4 µM)
- CN[C@H]1CC[C@@]2(C)C(=CC[C@H]3[C@@H]4CC[C@@H]5[C@H](C)N=C[C@@]54CC[C@@H]32)C1 [CONESSIDINE] — 83-fold lower, 2.29 mg/L (≈ 7.01 µM)
- C[C@@H]1NC[C@]23CC[C@H]4[C@@H](CC=C5C[C@@H](N(C)C)CC[C@@]54C)[C@@H]2CC[C@H]13 [CONESSIMINE] — 100-fold lower, 1.87 mg/L (≈ 5.46 µM)
- C[C@H]1[C@H]2CC[C@H]3[C@@H]4CC=C5C[C@@H](N(C)C)CC[C@]5(C)[C@H]4CC[C@]23CN1C [CONESSINE] — 21-fold lower, 8.97 mg/L (≈ 25.2 µM)
- COc1ccc2c3c(c4cc(OC)c(OC)cc4c2c1)C[C@H]1CCCCN1C3 [CRYPTOPLEURINE] — 6100-fold lower, 0.031 mg/L (≈ 0.0821 µM)
- COc1cc2c3cc1Oc1c(O)c(OC)cc4c1[C@H](Cc1ccc(cc1)Oc1cc(ccc1O)C[C@H]3NCC2)N(C)CC4 [DAPHNOLINE] — not separable, > 50 mg/L
- CC[C@@H]1CN2CC[C@@]34c5ccccc5N5[C@@H]([C@@H]6[C@H]7C[C@@H]8N(CC[C@@]89c8ccccc8N(C(C)=O)[C@@H]69)C[C@H]7CC)OC[C@H]([C@H]1C[C@H]23)[C@H]54 [DIDEHYDRO ISOSTRYCHNOBILINE] — 8.8-fold lower, 21.4 mg/L (≈ 34.6 µM)
- COc1ccc2cc1-c1cc(ccc1O)C[C@@H]1c3c(cc(OC)c4c3Oc3cc5c(cc3O4)CCN(C)[C@H]5C2)CCN1C [DINKLACORINE] — 9.5-fold lower, 19.8 mg/L (≈ 34.4 µM)
- C/C=C1/C[N+]2(C)CCc3c([nH]c4ccccc34)C2CC1C(CO)C(=O)OC (stereo not given) [DIPLOCELINE] — 3.8-fold lower, 50 mg/L
- Oc1cc(O)c2c(c1)O[C@H](c1cc(O)c(O)c(O)c1)[C@H](O)C2 [EPIGALLOCATECHIN] — 27-fold lower, 6.89 mg/L (≈ 22.5 µM)
- COC(=O)C1=CO[C@H](O[C@@H]2O[C@H](CO)[C@@H](O)[C@H](O)[C@H]2O)[C@H]2[C@@H]1[C@@H]1O[C@@H]1[C@@]21C=C(C(O)c2ccc(O)cc2)C(=O)O1 (stereo not given in full) [EPOXYGAERTNEROSIDE] — 150-fold lower, 1.3 mg/L (≈ 2.3 µM)
- COc1ccc2cc1Oc1ccc(cc1)C[C@H]1c3cc(c(OC)cc3CCN1C)Oc1c(O)c(OC)cc3c1[C@H](C2)N(C)CC3 [FANGCHINOLINE] — 13-fold lower, 14.7 mg/L (≈ 24.2 µM)
- COc1cc2c3cc1Oc1c(OC)c(OC)cc4c1[C@H](Cc1ccc(O)c(c1)-c1cc(ccc1OC)C[C@H]3N(C)CC2)N(C)CC4 [FUNIFERINE] — 6.7-fold lower, 28.3 mg/L (≈ 45.4 µM)
